ChEMBL document CHEMBL4842348 (J Med Chem, 2021)
Values after ≈ are worked out from the molar mass of the structure shown.

Experiments:
[1] = Lipophilicity, logD of the compound at pH 7.3 by HPLC analysis; type: physicochemical; settings: buffer
[2] = Solubility of the compound in pH 7 phosphate buffer by shake-flask method; type: physicochemical

Compound: COc1ccc(-c2ccc(C(=O)O)cc2C)cc1-c1cnc(N(C)C)cc1[C@@H]1CC[C@H]2[C@@H](c3cc(C(F)(F)F)cc(C(F)(F)F)c3)OC(=O)N12
- logD [1]: 4.6

Compound: COc1ccc(-c2ccc(C(=O)O)cc2C)cc1-c1ccc(N(C)C)nc1[C@@H]1CC[C@H]2[C@@H](c3cc(C(F)(F)F)cc(C(F)(F)F)c3)OC(=O)N12
- logD [1]: 5.8

Compound: COc1ncc(-c2ccc(C(=O)O)cc2C)cc1-c1cnc(C(F)(F)F)cc1[C@@H]1CC[C@H]2[C@@H](c3cc(C(F)(F)F)cc(C(F)(F)F)c3)OC(=O)N12
- logD [1]: 4.6

Compound: COc1ccc([C@H]2CC[C@H](C(=O)O)CC2)cc1-c1ccc(C(F)(F)F)cc1[C@@H]1CC[C@H]2[C@@H](c3cc(C(F)(F)F)cc(C(F)(F)F)c3)OC(=O)N12
- logD [1]: 5.6

Compound: COc1ccc([C@@H]2C[C@@H](O)[C@@H](O)C2)cc1-c1ccc(C(F)(F)F)cc1[C@@H]1CC[C@H]2[C@@H](c3cc(C(F)(F)F)cc(C(F)(F)F)c3)OC(=O)N12
- logD [1]: 5.7

Compound: COc1cc(F)c(-c2ccc(C(=O)O)cc2C)cc1-c1cc(C)c(C(F)(F)F)cc1[C@@H]1CC[C@H]2[C@@H](c3cc(C(F)(F)F)cc(C(F)(F)F)c3)OC(=O)N12
- logD [1]: 6

Compound: COc1ncc(-c2ccc(C(=O)O)cc2C)cc1-c1cc(C)c(C(F)(F)F)cc1[C@@H]1CC[C@H]2[C@@H](c3cc(C(F)(F)F)cc(C(F)(F)F)c3)OC(=O)N12
- logD [1]: 5.8

Compound: COc1ccc(-c2ccc(C(=O)O)cc2C)cc1-c1c(C)cc(C(F)(F)F)cc1[C@@H]1CC[C@H]2[C@@H](c3cc(C(F)(F)F)cc(C(F)(F)F)c3)OC(=O)N12
- logD [1]: 6

Compound: COc1ncc(-c2ccc(C(=O)O)cc2C)cc1-c1ccc(C(F)(F)F)cc1[C@@H]1CC[C@H]2[C@@H](c3cc(F)cc(C(F)(F)F)c3)OC(=O)N12
- logD [1]: 5

Compound: COc1ncc(-c2ccc(C(=O)O)cc2C)cc1-c1c(C)cc(C(F)(F)F)cc1[C@@H]1CC[C@H]2[C@@H](c3cc(C(F)(F)F)cc(C(F)(F)F)c3)OC(=O)N12
- logD [1]: 5.7

Compound: COc1ccc(-c2c(C)cc(C(=O)O)cc2C)cc1-c1ncc(C(F)(F)F)cc1[C@@H]1CC[C@H]2[C@@H](c3cc(C(F)(F)F)cc(C(F)(F)F)c3)OC(=O)N12
- logD [1]: 4.8

Compound: COc1ncc(-c2ccc(C(=O)O)cc2C)cc1-c1ncc(C(F)(F)F)cc1[C@@H]1CC[C@H]2[C@@H](c3cc(C(F)(F)F)cc(C(F)(F)F)c3)OC(=O)N12
- logD [1]: 4.5

Compound: COc1ncc(-c2c(C)cc(C(=O)O)cc2C)cc1-c1ccc(C(F)(F)F)nc1[C@@H]1CC[C@H]2[C@@H](c3cc(C(F)(F)F)cc(C(F)(F)F)c3)OC(=O)N12
- logD [1]: 5.8

Compound: COc1ncc(-c2ccc(C(=O)O)cc2C)cc1-c1ccc(C(F)(F)F)cc1[C@@H]1CC[C@H]2[C@@H](c3cccc(C(F)(F)F)c3)OC(=O)N12
- logD [1]: 4.7

Compound: COc1cc(F)c(-c2ccc(-c3nnc(N)o3)cc2C)cc1-c1ccc(C(F)(F)F)cc1[C@@H]1CC[C@H]2[C@@H](c3cc(C)cc(C(F)(F)F)c3)OC(=O)N12
- logD [1]: 6.6

Compound: COc1ccc([C@H]2C[C@H](C(=O)O)C2)cc1-c1ccc(C(F)(F)F)cc1[C@@H]1CC[C@H]2[C@@H](c3cc(C(F)(F)F)cc(C(F)(F)F)c3)OC(=O)N12
- logD [1]: 5.1

Compound: COc1ccc(C2CNC(=O)OC2(C)C)cc1-c1ccc(C(F)(F)F)cc1[C@@H]1CC[C@H]2[C@@H](c3cc(C(F)(F)F)cc(C(F)(F)F)c3)OC(=O)N12 (some centres undefined)
- logD [1]: 5.7

Compound: CCc1ncc(-c2cc(-c3ccc(C(=O)O)cc3C)ccc2OC)c(CN2C(=O)O[C@H](c3cc(C(F)(F)F)cc(C(F)(F)F)c3)[C@@H]2C)n1
- logD [1]: 4.5

Compound: COc1ccc(CCC(=O)O)cc1-c1ccc(C(F)(F)F)cc1[C@@H]1CC[C@H]2[C@@H](c3cc(C(F)(F)F)cc(C(F)(F)F)c3)OC(=O)N12
- logD [1]: 4.7

Compound: COc1ccc(-c2ccc(C(=O)O)cc2C)cc1-c1cnc(C(C)(F)F)nc1CN1C(=O)O[C@H](c2cc(C(F)(F)F)cc(C(F)(F)F)c2)[C@@H]1C
- logD [1]: 4.6
- solubility thermodynamic [2]: 20 µM (≈ 14.2 µg/mL)

Compound: COc1ncc(-c2ccc(C(=O)O)cc2C)cc1-c1ccc(C(F)(F)F)nc1CN1C(=O)O[C@H](c2cc(C(F)(F)F)cc(C(F)(F)F)c2)[C@@H]1C
- logD [1]: 5.1
- solubility thermodynamic [2]: 9 µM (≈ 6.42 µg/mL)

Compound: COc1ccc(-c2ccc(C(=O)O)cc2C)cc1-c1ccc(C(F)(F)F)nc1CN1C(=O)O[C@H](c2cc(C(F)(F)F)cc(C(F)(F)F)c2)[C@@H]1C
- logD [1]: 5.3
- solubility thermodynamic [2]: 29 µM (≈ 20.7 µg/mL)

Compound: COc1ccc(-c2ccc(C(=O)O)cc2C)cc1-c1cnc(N(C)C)nc1CN1C(=O)O[C@H](c2cc(C(F)(F)F)cc(C(F)(F)F)c2)[C@@H]1C
- logD [1]: 4.8
- solubility thermodynamic [2]: 43 µM (≈ 29.6 µg/mL)

Compound: COc1cc(F)c(-c2ccc(C(=O)O)cc2C)cc1-c1ccc(C(F)(F)F)cc1[C@@H]1CC[C@H]2[C@@H](c3cc(F)cc(C(F)(F)F)c3)OC(=O)N12
- logD [1]: 5.1

Compound: COc1cc(F)c(-c2ccc(C(=O)O)cc2C)cc1-c1cnc(C2CC2)cc1[C@@H]1CC[C@H]2[C@@H](c3cc(C(F)(F)F)cc(C(F)(F)F)c3)OC(=O)N12
- logD [1]: 4.8

Compound: COc1ccc([C@H]2CCC(=O)N[C@@H]2C)cc1-c1ccc(C(F)(F)F)cc1[C@@H]1CC[C@H]2[C@@H](c3cc(C(F)(F)F)cc(C(F)(F)F)c3)OC(=O)N12
- logD [1]: 5.9

Compound: COc1ccc(-c2ccc(C(=O)O)cc2C)cc1-c1cnc(C(F)(F)F)cc1[C@@H]1CC[C@H]2[C@@H](c3cc(C(F)(F)F)cc(C(F)(F)F)c3)OC(=O)N12
- logD [1]: 4.8

Compound: COc1ccc(C(C)CC(=O)O)cc1-c1ccc(C(F)(F)F)cc1[C@@H]1CC[C@H]2[C@@H](c3cc(C(F)(F)F)cc(C(F)(F)F)c3)OC(=O)N12 (some centres undefined)
- logD [1]: 5

Compound: COc1ccc(-c2ccc(C(=O)O)cc2C)cc1-c1cnc(N2CCOCC2)nc1CN1C(=O)O[C@H](c2cc(C(F)(F)F)cc(C(F)(F)F)c2)[C@@H]1C
- logD [1]: 4.8

Compound: COc1ccc(-c2ccc(C(=O)O)cc2C)cc1-c1cnc(C(F)(F)F)nc1CN1C(=O)O[C@H](c2cc(C(F)(F)F)cc(C(F)(F)F)c2)[C@@H]1C
- logD [1]: 4.9
- solubility thermodynamic [2]: 6 µM (≈ 4.28 µg/mL)

Compound: COc1ncc(-c2ccc(C(=O)O)cc2C)cc1-c1cc(C(F)(F)F)c(OC)nc1CN1C(=O)O[C@H](c2cc(C(F)(F)F)cc(C(F)(F)F)c2)[C@@H]1C
- logD [1]: 5.7
- solubility thermodynamic [2]: 5 µM (≈ 3.72 µg/mL)

Compound: COc1ccc(-c2c(C)cc(C(=O)O)cc2C)cc1-c1ccc(C(F)(F)F)cc1[C@@H]1CC[C@H]2[C@@H](c3cc(C(F)(F)F)cc(C(F)(F)F)c3)OC(=O)N12
- logD [1]: 5.4

Compound: COc1ccc(-c2ccc(C(=O)O)cc2C)cc1-c1ncc(C(F)(F)F)cc1[C@@H]1CC[C@H]2[C@@H](c3cc(C(F)(F)F)cc(C(F)(F)F)c3)OC(=O)N12
- logD [1]: 4.6

Compound: COc1cc(F)c(-c2ccc(C(=O)O)cc2C)cc1-c1ccc(F)cc1[C@@H]1CC[C@H]2[C@@H](c3cc(C(F)(F)F)cc(C(F)(F)F)c3)OC(=O)N12
- logD [1]: 5.1

Compound: COc1ccc(-c2ccc(C(=O)O)cc2C)cc1-c1cnc(N2CC(F)C2)nc1CN1C(=O)O[C@H](c2cc(C(F)(F)F)cc(C(F)(F)F)c2)[C@@H]1C
- logD [1]: 4.6
- solubility thermodynamic [2]: 8 µM (≈ 5.75 µg/mL)

Compound: COc1ncc(-c2cc(-c3ccc(C(=O)O)cc3C)ccc2OC)c(CN2C(=O)O[C@H](c3cc(C(F)(F)F)cc(C(F)(F)F)c3)[C@@H]2C)n1
- logD [1]: 4.2
- solubility thermodynamic [2]: 52 µM (≈ 35.1 µg/mL)
